According to paper PMC8875126, “Mechanistic Insights into Stereospecific Antifungal Activity of Chiral Fungicide Prothioconazole against Fusarium oxysporum F. sp. cubense” (International Journal of Molecular Sciences, 2022):

Molecular target: T1, N1RIS1_FUSC4 (CYP51 of TR4; Eburicol 14-alpha-demethylase) (Fusarium odoratissimum, UniProt N1RIS1)
T1 construct: gene FOC4_g10015154
T1 sequence (N1RIS1 1-527): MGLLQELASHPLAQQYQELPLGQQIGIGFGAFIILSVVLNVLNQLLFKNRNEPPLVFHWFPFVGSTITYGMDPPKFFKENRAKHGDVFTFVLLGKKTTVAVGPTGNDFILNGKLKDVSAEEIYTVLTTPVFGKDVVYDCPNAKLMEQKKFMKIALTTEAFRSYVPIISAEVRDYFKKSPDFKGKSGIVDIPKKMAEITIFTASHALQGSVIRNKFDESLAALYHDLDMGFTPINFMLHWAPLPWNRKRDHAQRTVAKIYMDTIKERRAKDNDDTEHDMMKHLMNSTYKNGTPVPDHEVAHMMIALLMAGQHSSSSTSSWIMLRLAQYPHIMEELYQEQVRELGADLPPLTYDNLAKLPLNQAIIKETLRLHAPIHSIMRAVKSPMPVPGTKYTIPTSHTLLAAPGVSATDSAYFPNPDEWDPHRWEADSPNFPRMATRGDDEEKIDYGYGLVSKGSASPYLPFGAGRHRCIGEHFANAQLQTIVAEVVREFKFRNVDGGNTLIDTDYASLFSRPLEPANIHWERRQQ
Experiment: SPR (Biacore T200, protein amine-coupled on CM5 chip, […] kinetic fit)
Format: binding
Details: 25 °C; 3.125-50 μM analyte

SMILES: O[C@](Cc1ccccc1Cl)(Cn1[nH]cnc1=S)C1(Cl)CC1 [R-Pro]
- Kd: 0.342 nM
